Bridge positions count the residues as written; N and C are the ends. Square brackets hold non-standard residues; d marks the D form. Peptide text beside a SMILES is read from it. * marks the point of attachment. Trp(7-Cl) = N[C@@H](Cc1c[nH]c2c(Cl)cccc12)C(=O)O; Phe(3-CF3) = N[C@@H](Cc1cccc(C(F)(F)F)c1)C(=O)O; Phe(4-COOH) = N[C@@H](Cc1ccc(C(=O)O)cc1)C(=O)O; Bip = N[C@@H](Cc1ccc(-c2ccccc2)cc1)C(=O)O; Phe(4-CN) = N#Cc1ccc(C[C@H](N)C(=O)O)cc1; Phe(3-Me) = Cc1cccc(C[C@H](N)C(=O)O)c1; 1Nal = N[C@@H](Cc1cccc2ccccc12)C(=O)O; Val(3-OH) = CC(C)(O)[C@H](N)C(=O)O; aIle = CC[C@@H](C)[C@H](N)C(=O)O; 3Pal = N[C@@H](Cc1cccnc1)C(=O)O; 4Pal = N[C@@H](Cc1ccncc1)C(=O)O; Cha = N[C@@H](CC1CCCCC1)C(=O)O; Cit = NC(=O)NCCC[C@H](N)C(=O)O; Carboxymethyl = O=C(O)C*; NMeA = CN[C@@H](C)C(=O)O; dAbu = CC[C@@H](N)C(=O)O; Dab = NCC[C@H](N)C(=O)O; Dap = NC[C@H](N)C(=O)O
Target: T1, PE-labeled human PD-L1-Ig binding to Jurkat cell line over-expressing human PD-1 (Jurkat-PD-1) (Homo sapiens, UniProt Q15116)
T1 construct: expressed in transfected cells; host or cells: Jurkat
Experiment: Jurkat-PD-1 Cell Binding High-Content Screening Assay (CBA): Method 1
Details: Jurkat-hPD-1 cells, PE-labeled PD-L1-Ig 20 nM final; read-out: Jurkat HPDL1 PD1 IC50 (uM) (Method 1)

T1 sequence (Q15116 25-288): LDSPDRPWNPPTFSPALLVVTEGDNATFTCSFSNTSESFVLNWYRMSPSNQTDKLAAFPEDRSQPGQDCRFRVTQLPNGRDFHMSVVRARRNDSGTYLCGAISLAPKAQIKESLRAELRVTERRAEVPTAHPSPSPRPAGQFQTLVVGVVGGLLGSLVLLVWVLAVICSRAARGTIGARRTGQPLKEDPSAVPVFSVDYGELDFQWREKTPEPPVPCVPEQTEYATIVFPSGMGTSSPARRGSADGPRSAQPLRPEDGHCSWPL

Compound	IC50
CC(C)C[C@@H]1NC(=O)[C@H](Cc2c[nH]c3ccccc23)NC(=O)[C@H](CC(=O)O)NC(=O)[C@H](Cc2ccncc2)NC(=O)[C@H](Cc2ccc(OCC(=O)O)cc2)NC(=O)CSC[C@@H](C(=O)N[C@@H](CCN)C(N)=O)NC(=O)[C@H](CO)NC(=O)[C@H](C(C)C)NC(=O)[C@H](CC2CCCCC2)NC(=O)[C@H](CCN)NC(=O)[C@@H](CC(C)C)NC(=O)[C@H](C)N(C)C(=O)[C@H](Cc2ccc(O)cc2)NC(=O)[C@H](Cc2ccc(-c3ccccc3)cc2)NC1=O [Compound 1908] ({CH2CO}-Y(Carboxymethyl)[4Pal]DWL[Bip]Y[NMeA][dL][Dab][Cha]VSC[Dab]-NH2; thioether N-14)	0.04 µM
CC(C)C[C@@H]1NC(=O)[C@H](Cc2c[nH]c3ccccc23)NC(=O)[C@H](CC(=O)O)NC(=O)[C@H](Cc2ccc(C(=O)O)cc2)NC(=O)[C@H](Cc2ccccc2)NC(=O)CSC[C@@H](C(=O)N[C@@H](C)C(N)=O)NC(=O)[C@H](CO)NC(=O)[C@H](C(C)C)NC(=O)[C@H](CC(C)C)NC(=O)[C@H](CCCCN)NC(=O)[C@@H](C)NC(=O)[C@H](C)N(C)C(=O)[C@H](CCC(=O)O)NC(=O)[C@H](Cc2ccc(-c3ccccc3)cc2)NC1=O [Compound 1746] ({CH2CO}-F[Phe(4-COOH)]DWL[Bip]E[NMeA][dA]KLVSCA-NH2; thioether N-14)	0.02 µM
Cc1cccc(C[C@@H]2NC(=O)[C@H](CC(=O)O)NC(=O)[C@H](Cc3ccc(OCC(=O)O)cc3)NC(=O)[C@H](Cc3ccncc3)NC(=O)CSC[C@@H](C(=O)N[C@@H](CCN)C(N)=O)NC(=O)[C@H](CCC(=O)O)NC(=O)[C@H](C(C)C)NC(=O)[C@H](CC3CCCCC3)NC(=O)[C@H](CCN)NC(=O)[C@@H](CC(C)C)NC(=O)[C@H](C)N(C)C(=O)[C@H](Cc3ccc(OCC(=O)O)cc3)NC(=O)[C@H](Cc3ccc(-c4ccccc4)cc3)NC(=O)[C@H](Cc3ccc(C(=O)O)cc3)NC2=O)c1 [Compound 2193] ({CH2CO}-[4Pal]Y(Carboxymethyl)D[Phe(3-Me)][Phe(4-COOH)][Bip]Y(Carboxymethyl)[NMeA][dL][Dab][Cha]VEC[Dab]-NH2; thioether N-14)	0.01 µM
CC(C)C[C@@H]1NC(=O)[C@H](Cc2c[nH]c3ccccc23)NC(=O)[C@H](CC(=O)O)NC(=O)[C@H](Cc2ccc(C(=O)O)cc2)NC(=O)[C@H](Cc2ccc(OCC(=O)O)cc2)NC(=O)CSC[C@@H](C(=O)N[C@@H](C)C(N)=O)NC(=O)[C@H](CO)NC(=O)[C@H](C(C)C)NC(=O)[C@H](CC(C)C)NC(=O)[C@H](CC(N)=O)NC(=O)[C@@H](C)NC(=O)[C@H](C)N(C)C(=O)[C@H](C(C)C)NC(=O)[C@H](Cc2ccc(-c3ccccc3)cc2)NC1=O [Compound 1560] ({CH2CO}-Y(Carboxymethyl)[Phe(4-COOH)]DWL[Bip]V[NMeA][dA]NLVSCA-NH2; thioether N-14)	0.02 µM
CC(C)C[C@@H]1NC(=O)[C@H](CCN)NC(=O)[C@@H](CC(C)C)NC(=O)[C@H](C)N(C)C(=O)[C@H](Cc2cnc[nH]2)NC(=O)[C@H](Cc2ccc(-c3ccccc3)cc2)NC(=O)[C@H](C(C)C)NC(=O)[C@H](Cc2c[nH]c3ccccc23)NC(=O)[C@H](CC(=O)O)NC(=O)[C@H](Cc2ccc(C(=O)O)cc2)NC(=O)[C@H](CN)NC(=O)CSC[C@@H](C(=O)N[C@@H](C)C(N)=O)NC(=O)[C@H]([C@@H](C)O)NC(=O)[C@H](C(C)C)NC1=O [Compound 1439] ({CH2CO}-[Dap][Phe(4-COOH)]DWV[Bip]H[NMeA][dL][Dab]LVTCA-NH2; thioether N-14)	0.06 µM
CC[C@@H](C)[C@@H]1NC(=O)[C@H](Cc2ccc(-c3ccccc3)cc2)NC(=O)[C@H](CC(C)C)NC(=O)[C@H](Cc2cccc(C)c2)NC(=O)[C@H](CC(=O)O)NC(=O)[C@H](Cc2ccc(C(=O)O)cc2)NC(=O)[C@H](Cc2ccc(OCC(=O)O)cc2)NC(=O)CSC[C@@H](C(N)=O)NC(=O)[C@H](CO)NC(=O)[C@H](C(C)C)NC(=O)[C@H](CC(C)C)NC(=O)[C@H](CC(N)=O)NC(=O)[C@@H](CC(C)C)NC(=O)[C@H](C)N(C)C1=O [Compound 1639] ({CH2CO}-Y(Carboxymethyl)[Phe(4-COOH)]D[Phe(3-Me)]L[Bip][aIle][NMeA][dL]NLVSC-NH2; thioether N-14)	0.06 µM
CC(C)C[C@@H]1NC(=O)[C@H](Cc2c[nH]c3ccccc23)NC(=O)[C@H](CC(=O)O)NC(=O)[C@H](Cc2ccc(C#N)cc2)NC(=O)[C@H](Cc2ccccc2)NC(=O)CSC[C@@H](C(=O)N[C@@H](C)C(N)=O)NC(=O)[C@H](CO)NC(=O)[C@H](C(C)C)NC(=O)[C@H](CC(C)C)NC(=O)[C@H](CC(N)=O)NC(=O)[C@@H](C)NC(=O)[C@H](C)N(C)C(=O)[C@H](C(C)C)NC(=O)[C@H](Cc2ccc(-c3ccccc3)cc2)NC1=O [Compound 1726] ({CH2CO}-F[Phe(4-CN)]DWL[Bip]V[NMeA][dA]NLVSCA-NH2; thioether N-14)	0.01 µM
CC(C)C[C@@H]1NC(=O)[C@H](Cc2c[nH]c3ccccc23)NC(=O)[C@H](CC(=O)O)NC(=O)[C@H](Cc2cccc(C(F)(F)F)c2)NC(=O)[C@H](Cc2ccccc2)NC(=O)CSC[C@@H](C(=O)N[C@@H](C)C(N)=O)NC(=O)[C@H](CO)NC(=O)[C@H](C(C)C)NC(=O)[C@H](CC(C)C)NC(=O)[C@H](CC(N)=O)NC(=O)[C@@H](C)NC(=O)[C@H](C)N(C)C(=O)[C@H](C(C)C)NC(=O)[C@H](Cc2ccc(-c3ccccc3)cc2)NC1=O [Compound 1777] ({CH2CO}-F[Phe(3-CF3)]DWL[Bip]V[NMeA][dA]NLVSCA-NH2; thioether N-14)	0.06 µM
CC(C)C[C@@H]1NC(=O)[C@H](CCCNC(=N)N)NC(=O)[C@H](Cc2cccc3ccccc23)NC(=O)[C@H](C)N(C)C(=O)[C@H](CCCNC(=N)N)NC(=O)[C@H](Cc2ccc(-c3ccccc3)cc2)NC(=O)[C@H](C(C)C)NC(=O)[C@H](Cc2c[nH]c3ccccc23)NC(=O)[C@H](CC(=O)O)NC(=O)[C@H](Cc2ccc(O)cc2)NC(=O)[C@H](CC(N)=O)NC(=O)CSC[C@@H](C(=O)N[C@@H](C)C(N)=O)NC(=O)[C@H]([C@@H](C)O)NC(=O)[C@H](C(C)C)NC1=O [Compound 1185] ({CH2CO}-NYDWV[Bip]R[NMeA][1Nal]RLVTCA-NH2; thioether N-14)	0.35 µM
CC[C@H](C)[C@@H]1NC(=O)[C@H](Cc2ccc(-c3ccccc3)cc2)NC(=O)[C@H](C(C)(C)O)NC(=O)[C@H](Cc2cccc(C)c2)NC(=O)[C@H](CC(=O)O)NC(=O)[C@H](Cc2ccc(O)cc2)NC(=O)[C@H](CC(N)=O)NC(=O)CSC[C@@H](C(=O)N[C@@H](CCN)C(N)=O)NC(=O)[C@H]([C@@H](C)O)NC(=O)[C@H](C(C)C)NC(=O)[C@H](CC(C)C)NC(=O)[C@H](CCN)NC(=O)[C@@H](CC(C)C)NC(=O)[C@H](C)N(C)C1=O [Compound 1686] ({CH2CO}-NYD[Phe(3-Me)][Val(3-OH)][Bip]I[NMeA][dL][Dab]LVTC[Dab]-NH2; thioether N-14)	0.16 µM

The remaining lines, values ahead:

IC50	Compound
0.64 µM	CC(C)C[C@@H]1NC(=O)[C@H](CCCNC(=N)N)NC(=O)[C@@H](Cc2cnc[nH]2)NC(=O)[C@H](C)N(C)C(=O)[C@H](CCCNC(=N)N)NC(=O)[C@H](Cc2ccc(-c3ccccc3)cc2)NC(=O)[C@H](C(C)C)NC(=O)[C@H](Cc2c[nH]c3ccccc23)NC(=O)[C@H](CC(=O)O)NC(=O)[C@H](Cc2ccc(O)cc2)NC(=O)[C@H](Cc2ccccc2)NC(=O)CSC[C@@H](C(=O)NCC(N)=O)NC(=O)[C@H](CO)NC(=O)[C@H](C(C)C)NC1=O [Compound 1022] ({CH2CO}-FYDWV[Bip]R[NMeA][dH]RLVSCG-NH2; thioether N-14)
0.04 µM	CC[C@H]1NC(=O)[C@H](C)N(C)C(=O)[C@H](C(C)C)NC(=O)[C@H](Cc2ccc(-c3ccccc3)cc2)NC(=O)[C@H](CC(C)C)NC(=O)[C@H](Cc2c[nH]c3ccccc23)NC(=O)[C@H](CC(=O)O)NC(=O)[C@H](Cc2ccc(O)cc2)NC(=O)[C@H](Cc2ccccc2)NC(=O)CSC[C@@H](C(=O)N[C@@H](C)C(N)=O)NC(=O)[C@H](CO)NC(=O)[C@H](C(C)C)NC(=O)[C@H](CC(C)C)NC(=O)[C@H](CC(N)=O)NC1=O [Compound 1763] ({CH2CO}-FYDWL[Bip]V[NMeA][dAbu]NLVSCA-NH2; thioether N-14)
0.02 µM	CC(C)C[C@@H]1NC(=O)[C@H](CCN)NC(=O)[C@@H](CC(C)C)NC(=O)[C@H](C)N(C)C(=O)[C@H](CCCNC(N)=O)NC(=O)[C@H](Cc2ccc(-c3ccccc3)cc2)NC(=O)[C@H](C(C)C)NC(=O)[C@H](Cc2c[nH]c3ccccc23)NC(=O)[C@H](CC(=O)O)NC(=O)[C@H](Cc2cccnc2)NC(=O)[C@H](CC(N)=O)NC(=O)CSC[C@@H](C(=O)N[C@@H](C)C(N)=O)NC(=O)[C@H]([C@@H](C)O)NC(=O)[C@H](C(C)C)NC1=O [Compound 1318] ({CH2CO}-N[3Pal]DWV[Bip][Cit][NMeA][dL][Dab]LVTCA-NH2; thioether N-14)
0.13 µM	CC(C)C[C@@H]1NC(=O)[C@H](CCCNC(=N)N)NC(=O)[C@@H](CC(C)C)NC(=O)[C@H](C)N(C)C(=O)[C@H](CCCNC(=N)N)NC(=O)[C@H](Cc2ccc(-c3ccccc3)cc2)NC(=O)[C@H](C(C)C)NC(=O)[C@H](Cc2c[nH]c3c(Cl)cccc23)NC(=O)[C@H](CC(=O)O)NC(=O)[C@H](Cc2ccc(O)cc2)NC(=O)[C@H](Cc2ccccc2)NC(=O)CSC[C@@H](C(=O)N[C@@H](C)C(N)=O)NC(=O)[C@H]([C@@H](C)O)NC(=O)[C@H](C(C)C)NC1=O [Compound 1098] ({CH2CO}-FYD[Trp(7-Cl)]V[Bip]R[NMeA][dL]RLVTCA-NH2; thioether N-14)
0.05 µM	CC(C)C[C@@H]1NC(=O)[C@H](CCN)NC(=O)[C@@H](CC(C)C)NC(=O)[C@H](C)N(C)C(=O)[C@H](Cc2cnc[nH]2)NC(=O)[C@H](Cc2ccc(-c3ccccc3)cc2)NC(=O)[C@H](C(C)C)NC(=O)[C@H](Cc2c[nH]c3ccccc23)NC(=O)[C@H](CC(=O)O)NC(=O)[C@H](Cc2ccc(O)cc2)NC(=O)[C@H](CN)NC(=O)CSC[C@@H](C(=O)N[C@@H](C)C(N)=O)NC(=O)[C@H]([C@@H](C)O)NC(=O)[C@H](C(C)C)NC1=O [Compound 1424] ({CH2CO}-[Dap]YDWV[Bip]H[NMeA][dL][Dab]LVTCA-NH2; thioether N-14)
